{"source": "patent US20070184490A1", "about": "“Neuronal nicotinic receptor ligands and their use” (priority 2006, published 2007)", "key": {"adults with ADHD": {"test_system": "adults with ADHD", "assay": "pilot study: computerized cognitive assessment battery", "assay_type": "in vivo, human", "protocol": "Raters for the CAARS were trained and certified prior to the start of the study. Investigator-administered CAARS, CGI-ADHD-S, Hamilton Anxiety Scale (HAM-A) (Hamilton 1959), and Hamilton Depression Scale (HAM-D) (Hamilton 1960) were administered to subjects at baseline and at the completion of each treatment period (Days 14, 28, 42, and 56). CMRS, HAM-A, and HAM-D ratings were based on the previous seven days. After being trained, subjects completed a computerized cognitive assessment battery (Simpson et al 1989), which was amended to include the Conner's Continuous Performance Test (Conners 1995) and the Stroop Color Word Test (Jensen and Rohwer 1966), at baseline and at the completion of each treatment period. Attentional tasks (simple and choice reaction time, digit vigilance), selective attention (Conner's CPT), working memory tasks (numeric and spatial working memory, rapid visual information processing), episodic secondary memory (immediate and delayed word recall, word and picture recognition), motor control tasks (tracking), and executive function (the Stroop effect) were among the items assessed.\nThe primary efficacy endpoint was the CAARS total ADHD symptom score (sum of Inattention and Hyperactivity/Impulsivity scores) obtained on the last day of each treatment period. Treatment differences were assessed using an analysis of variance (ANOV A) model with fixed terms fitted for treatment, period, and sequence and a random effect for subjects-within-sequence. […] There were no corrections for multiple comparisons in this proof-of-concept study. Statistical tests of efficacy were one-sided; p-values ≦0.050 were considered statistically significant, and those between […] indicated a statistical trend."}, "[1]": {"assay": "Phase 1 multiple dose human study", "assay_type": "in vivo", "settings": "5 to 40 mg twice daily"}, "[2]": {"test_system": "α4β2, α3β4, or α3β2 NNR subtypes", "assay": "ion channel flux in cells expressing NNR subtypes", "assay_type": "cell-based", "source_text": "One method for assessing ion channel flux is via activation of ion flux into a cell expressed with recombinant α4β2, α3β4, or α3β2 NNR subtypes. Alternatively, a native cell line that expresses NNRs also can be suitable. The method can be accomplished under any suitable binding conditions. Examples of suitable binding conditions for [^3H]-cytisine binding have been described in the art, for example in at least U.S. Pat. Nos. 6,403,575 and 6,133,253, the procedures of which are herein incorporated by reference in their entirety. Data obtained from such ion channel flux assays can be evaluated to determine percent maximal nicotinic response (%), which directly correlates to percent maximal agonist efficacy.\nCells of IMR-32 human neuroblastoma clonal cell line (ATCC, Rockville, Md., USA) were maintained in a log phase of growth according to established procedures. Experimental cells were seeded at a density of 500,000 cells/mL into a 24-well tissue culture dish. Plated cells were allowed to proliferate for at least 48 hours before loading with 2 μCi/mL of ^86Rb^+ (35 Ci/mmol) overnight at 37° C. The ^86Rb^+ efflux assays were performed according to previously published protocols (Lukas, R. J., J. Pharmacol. Exp. Ther., 265, 294-302, 1993) except serum-free Dulbecco's Modified Eagle's medium was used during the ^86Rb^+ loading, rinsing, and agonist-induced efflux steps. […]"}, "[3]": {"assay": "pilot study: population PK plasma concentrations at steady state", "assay_type": "in vivo, human", "protocol": "Blood samples for pharmacokinetic analysis were taken at 0, 1, 2, 4, and 8 hours on Day 1 and at approximately 2 hours post-dose on the last day of each dosing period. The blood samples were immediately stored at 4° C. or below. The blood samples were centrifuged within one hour of collection using a refrigerated centrifuge to separate the plasma. The plasma samples were transferred using plastic pipettes into plastic vials. The plasma samples were frozen at −20° C. within one hour from centrifugation and remained frozen until shipped to Abbott Laboratories for analysis.\nDue to limited pharmacokinetic sampling timepoints, trough and average concentrations were estimated using a non-linear mixed-effect pharmacokinetic modeling approach with NONMEM software Version V)."}, "[4]": {"assay": "pilot study: tolerability and safety", "assay_type": "in vivo, human", "settings": "for Adverse event Headache, subjects reporting / Adverse event Increased appetite, subjects reporting / Adverse event Nervousness, subjects reporting / Adverse event Pain, subjects reporting / Adverse event Somnolence, subjects reporting: N=11", "protocol": "Safety was evaluated by spontaneous report of adverse events; in addition, laboratory data (hematology, chemistry, urinalysis), vital signs, and electrocardiograms ([…]) were completed at baseline and at the end of each treatment period."}}}
{"molecule": "Cc1ncccc1OC[C@@H]1CCCN1", "note": "[ABT-089, 2-methyl-3-(2-(S)-pyrrolidinylmethoxy)pyridine]", "values": [{"measurement": "Continuous Performance Test Attentiveness", "setting": "adults with ADHD; 2 mg", "result": "0.56±0.27"}, {"measurement": "Continuous Performance Test Attentiveness", "setting": "adults with ADHD; 4 mg", "result": "0.68±0.27"}, {"measurement": "Continuous Performance Test Attentiveness", "setting": "adults with ADHD; 20 mg", "result": "0.69±0.27"}, {"measurement": "information processing speed", "setting": "adults with ADHD; 20 mg", "result": "516.3±12.7"}, {"measurement": "Continuous Performance Test number of commission errors", "setting": "adults with ADHD; all ABT-089 dose levels", "result": "statistically significant improvement"}, {"measurement": "measures of attention (reaction time, vigilance), episodic secondary memory, executive function (Stroop Effect) vs placebo", "setting": "adults with ADHD; in vivo", "result": "no meaningful differences"}, {"measurement": "tolerability", "setting": "[1]", "result": "well tolerated"}, {"measurement": "Simple Reaction Time, a measure of attention", "setting": "[1]; compared to placebo", "result": "significantly improved"}, {"measurement": "agonist activity at NNRs expressed in vitro", "setting": "[2]", "result": "weak agonist activity"}, {"measurement": "Cavg Mean (±SD), model-predicted, steady state", "setting": "[3]; 2 mg bid", "result": "4.47 (1.05) ng/mL"}, {"measurement": "Ctrough Mean (±SD), model-predicted, steady state", "setting": "[3]; 2 mg bid", "result": "1.85 (0.79) ng/mL"}, {"measurement": "Cavg Mean (±SD), model-predicted, steady state", "setting": "[3]; 4 mg bid", "result": "8.94 (2.09) ng/mL"}, {"measurement": "Ctrough Mean (±SD), model-predicted, steady state", "setting": "[3]; 4 mg bid", "result": "3.69 (1.59) ng/mL"}, {"measurement": "Cavg Mean (±SD), model-predicted, steady state", "setting": "[3]; 20 mg bid", "result": "44.7 (10.46) ng/mL"}, {"measurement": "Ctrough Mean (±SD), model-predicted, steady state", "setting": "[3]; 20 mg bid", "result": "18.46 (7.95) ng/mL"}, {"measurement": "Adverse event Headache, subjects reporting", "setting": "[4]; 2 mg bid", "result": 3}, {"measurement": "Adverse event Increased appetite, subjects reporting", "setting": "[4]; 2 mg bid", "result": 0}, {"measurement": "Adverse event Nervousness, subjects reporting", "setting": "[4]; 2 mg bid", "result": 1}, {"measurement": "Adverse event Pain, subjects reporting", "setting": "[4]; 2 mg bid", "result": 0}, {"measurement": "Adverse event Somnolence, subjects reporting", "setting": "[4]; 2 mg bid", "result": 0}, {"measurement": "serious adverse events", "setting": "[4]; 2 mg to 20 mg twice daily", "result": "no serious adverse events"}, {"measurement": "tolerability", "setting": "[4]; 2 mg to 20 mg twice daily, 11 adult ADHD subjects", "result": "well tolerated"}, {"measurement": "Adverse event Headache, subjects reporting", "setting": "[4]; 4 mg bid", "result": 0}, {"measurement": "Adverse event Increased appetite, subjects reporting", "setting": "[4]; 4 mg bid", "result": 0}, {"measurement": "Adverse event Nervousness, subjects reporting", "setting": "[4]; 4 mg bid", "result": 0}, {"measurement": "Adverse event Pain, subjects reporting", "setting": "[4]; 4 mg bid", "result": 0}, {"measurement": "Adverse event Somnolence, subjects reporting", "setting": "[4]; 4 mg bid", "result": 0}, {"measurement": "nausea, subjects", "setting": "[4]; 4 mg dose", "result": "one subject"}, {"measurement": "Adverse event Headache, subjects reporting", "setting": "[4]; 20 mg bid", "result": 2}, {"measurement": "Adverse event Nervousness, subjects reporting", "setting": "[4]; 20 mg bid", "result": 1}, {"measurement": "Adverse event Pain, subjects reporting", "setting": "[4]; 20 mg bid", "result": 2}, {"measurement": "Adverse event Somnolence, subjects reporting", "setting": "[4]; 20 mg bid", "result": 2}, {"measurement": "laboratory findings, vital signs or ECG", "setting": "[4]; during the study", "result": "no clinically meaningful findings or dose-related trends"}]}
